Reference: patent US9556179B2 (BRISTOL-MYERS SQUIBB COMPANY, priority 2012, dated 2017)

Tests used:
CK1ε = CK1ε (Homo sapiens (Human), UniProt P49674); experiment: CK1ε kinase assay (Caliper LABCHIP electrophoretic separation of fluoresceinated peptide substrate and product); format: biochemical; conditions: 200 pM enzyme, 50 μM ATP, 22 hours at room temperature
Summary of the method: (§1)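 Eleven-concentration compound series in kinase reactions run for 22 hours at room temperature. Terminated with EDTA, with product conversion read by electrophoretic separation. Non-linear regression gave IC50.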

CK1δ = CK1δ (Homo sapiens (Human), UniProt P48730); experiment: CK1δ kinase assay (Caliper LABCHIP electrophoretic separation of fluoresceinated peptide substrate and product); format: biochemical; conditions: 200 pM enzyme, 50 μM ATP, 22 hours at room temperature
Summary of the method: as §1

Chain of CK1δ (P48730 whole entry): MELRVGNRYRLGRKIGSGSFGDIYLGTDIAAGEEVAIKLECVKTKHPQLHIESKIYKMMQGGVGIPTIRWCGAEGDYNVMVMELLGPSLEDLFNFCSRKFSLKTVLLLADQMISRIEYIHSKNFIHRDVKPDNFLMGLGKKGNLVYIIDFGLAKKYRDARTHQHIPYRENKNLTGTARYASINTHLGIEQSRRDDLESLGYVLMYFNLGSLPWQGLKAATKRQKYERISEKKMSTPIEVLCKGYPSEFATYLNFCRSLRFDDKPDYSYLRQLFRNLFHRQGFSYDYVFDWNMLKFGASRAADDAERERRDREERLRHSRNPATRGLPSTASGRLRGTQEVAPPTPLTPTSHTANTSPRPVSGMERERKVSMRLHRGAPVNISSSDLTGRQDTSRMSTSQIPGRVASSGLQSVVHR
Chain of CK1ε (P49674 whole entry): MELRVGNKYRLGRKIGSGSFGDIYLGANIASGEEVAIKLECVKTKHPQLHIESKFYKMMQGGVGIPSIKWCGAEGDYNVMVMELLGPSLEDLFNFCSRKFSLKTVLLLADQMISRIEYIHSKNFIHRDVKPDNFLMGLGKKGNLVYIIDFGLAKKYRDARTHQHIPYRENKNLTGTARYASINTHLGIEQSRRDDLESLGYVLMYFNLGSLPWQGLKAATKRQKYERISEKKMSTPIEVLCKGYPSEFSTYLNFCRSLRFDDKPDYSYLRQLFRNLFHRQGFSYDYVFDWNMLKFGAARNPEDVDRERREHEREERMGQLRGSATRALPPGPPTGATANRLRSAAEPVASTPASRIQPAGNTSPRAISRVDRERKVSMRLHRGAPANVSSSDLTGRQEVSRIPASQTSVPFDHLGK

SMILES	IC50 (CK1ε)	IC50 (CK1δ)
O=C(Nc1cn2nc(-c3c(-c4ccc(F)cc4)ncn3C3CCN(C(=O)OCc4ccon4)CC3)ccc2n1)c1ccnc(F)c1 [Compound 86, isoxazol-3-ylmethyl 4-(5-(2-(2-fluoroisonicotinamido)imidazo[1,2-b]pyridazin-6-yl)-4-(4-fluorophenyl)-1H-imidazol-1-yl)piperidine-1-carboxylate]	0.851 nM	0.286 nM
Cc1nc(-c2cccnc2)sc1C(=O)Nc1cn2nc(-c3c(-c4ccc(F)cc4)ncn3C3CCN(CCO)CC3)ccc2n1 [Compound 97, N-(6-(4-(4-fluorophenyl)-1-(1-(2-hydroxyethyl)piperidin-4-yl)-1H-imidazol-5-yl)imidazo [1,2-b]pyridazin-2-yl)-4-methyl-2-(pyridin-3-yl) thiazole-5-carboxamide]	0.095 nM	0.034 nM
Cc1nc(-c2cccnc2)sc1C(=O)Nc1cn2nc(-c3c(-c4ccc(F)cc4)ncn3C3CCN(CCC(F)(F)F)CC3)ccc2n1 [Compound 98, N-(6-(4-(4-fluorophenyl)-1-(1-(3,3,3-trifluoropropyl)piperidin-4-yl)-1H-imidazol-5-yl)imidazo [1,2-b]pyridazin-2-yl)-4-methyl-2-(pyridin-3-yl)thiazole-5-carboxamide]	3.88 nM	0.268 nM
Cc1nc(-c2cccnc2)sc1C(=O)Nc1cn2nc(-c3c(-c4ccc(F)cc4)ncn3C3CCN(CC(N)=O)CC3)ccc2n1 [Compound 100, N-(6-(1-(1-(2-amino-2-oxoethyl)piperidin-4-yl)-4-(4-fluorophenyl)-1H-imidazol-5-yl)imidazo[1,2-b]pyridazin-2-yl)-4-methyl-2-(pyridin-3-yl) thiazole-5-carboxamide]	0.128 nM	0.091 nM
Cc1nc(-c2cccnc2)sc1C(=O)Nc1cn2nc(-c3c(-c4ccc(F)cc4)ncn3C3CCN(C(=O)c4ccon4)CC3)ccc2n1 [Compound 101, N-(6-(4-(4-fluorophenyl)-1-(1-(isoxazole-3-carbonyl)piperidin-4-yl)-1H-imidazol-5-yl)imidazo[1,2-b]pyridazin-2-yl)-4-methyl-2-(pyridin-3-yl)thiazole-5-carboxamide]	1.24 nM	0.334 nM
Cc1nc(-c2cccnc2)sc1C(=O)Nc1cn2nc(-c3c(-c4ccc(F)cc4)ncn3C3CCN(C(=O)CC(F)(F)F)CC3)ccc2n1 [Compound 102, N-(6-(4-(4-fluorophenyl)-1-(1-(3,3,3-trifluoropropanoyl)piperidin-4-yl)-1H-imidazol-5-yl)imidazo [1,2-b]pyridazin-2-yl)-4-methyl-2-(pyridin-3-yl)thiazole-5-carboxamide]	0.484 nM	0.243 nM
O=C(Nc1cn2nc(-c3c(-c4ccc(F)cc4)ncn3C3CCNCC3)ccc2n1)c1ccnc(N2CCOCC2)c1 [Compound 106, N-(6-(4-(4-fluorophenyl)-1-(piperidin-4-yl)-1H-imidazol-5-yl)imidazo[1,2-b]pyridazin-2-yl)-2-morpholinoisonicotinamide]	3.12 nM	0.732 nM
O=C(Nc1cn2nc(-c3c(-c4ccc(F)cc4)ncn3C3CCN(CCC(F)(F)F)CC3)ccc2n1)c1ccnc(N2CCOCC2)c1 [Compound 107, N-(6-(4-(4-fluorophenyl)-1-(1-(3,3,3-trifluoropropyl)piperidin-4-yl)-1H-imidazol-5-yl)imidazo[1,2-b]pyridazin-2-yl)-2-morpholinoisonicotinamide]	1.92 nM	0.467 nM
O=C(Nc1cn2nc(-c3c(-c4ccc(F)cc4)ncn3C3CCN(C(=O)CC(F)(F)F)CC3)ccc2n1)c1ccnc(N2CCOCC2)c1 [Compound 108, N-(6-(4-(4-fluorophenyl)-1-(1-(3,3,3-trifluoropropanoyl)piperidin-4-yl)-1H-imidazol-5-yl)imidazo[1,2-b]pyridazin-2-yl)-2-morpholinoisonicotinamide]	3.3 nM	0.306 nM
CN1CCC(n2cnc(-c3ccc(F)cc3)c2-c2ccc3nc(NC(=O)c4ccnc5ccccc45)cn3n2)CC1 [Compound 110, N-(6-(4-(4-fluorophenyl)-1-(1-methylpiperidin-4-yl)-1H-imidazol-5-yl)imidazo[1,2-b]pyridazin-2-yl)quinoline-4-carboxamide]	3.27 nM	0.65 nM
NC(=O)CN1CCC(n2cnc(-c3ccc(F)cc3)c2-c2ccc3nc(NC(=O)c4ccnc5ccccc45)cn3n2)CC1 [Compound 112, N-(6-(1-(1-(2-amino-2-oxoethyl)piperidin-4-yl)-4-(4-fluorophenyl)-1H-imidazol-5-yl)imidazo[1,2-b]pyridazin-2-yl)quinoline-4-carboxamide]	0.886 nM	0.494 nM
N#CCCN1CCC(n2cnc(-c3ccc(F)cc3)c2-c2ccc3nc(NC(=O)c4ccnc5ccccc45)cn3n2)CC1 [Compound 113, N-(6-(1-(1-(2-cyanoethyl)piperidin-4-yl)-4-(4-fluorophenyl)-1H-imidazol-5-yl)imidazo[1,2-b]pyridazin-2-yl)quinoline-4-carboxamide]	1.51 nM	0.438 nM

The remaining lines, values ahead:

IC50 (CK1ε)	IC50 (CK1δ)	SMILES
1.59 nM	0.247 nM	O=C(Nc1cn2nc(-c3c(-c4ccc(F)cc4)ncn3C3CCN(C(=O)OCC4CC4(F)F)CC3)ccc2n1)c1ccnc(F)c1 (stereo not drawn) [Compound 82, (2,2-difluorocyclopropyl)methyl 4-(5-(2-(2-fluoroisonicotinamido)imidazo[1,2-b]pyridazin-6-yl)-4-(4-fluorophenyl)-1H-imidazol-1-yl)piperidine-1-carboxylate]
0.967 nM	0.179 nM	COC(=O)N1CCC(n2cnc(-c3ccc(F)cc3)c2-c2ccc3nc(NC(=O)c4ccnc(F)c4)cn3n2)CC1 [Compound 84, methyl 4-(5-(2-(2-fluoroisonicotinamido)imidazo[1,2-b]pyridazin-6-yl)-4-(4-fluorophenyl)-1H-imidazol-1-yl)piperidine-1-carboxylate]
2.34 nM	0.309 nM	O=C(Nc1cn2nc(-c3c(-c4ccc(F)cc4)ncn3C3CCN(C(=O)OCC(F)(F)F)CC3)ccc2n1)c1ccnc(F)c1 [Compound 85, 2,2,2-trifluoroethyl 4-(5-(2-(2-fluoroisonicotinamido)imidazo[1,2-b]pyridazin-6-yl)-4-(4-fluorophenyl)-1H-imidazol-1-yl)piperidine-1-carboxylate]
1.05 nM	0.402 nM	O=C(Nc1cn2nc(-c3c(-c4ccc(F)cc4)ncn3C3CCNCC3)ccc2n1)c1cc(F)nc(F)c1 [Compound 87, 2,6-difluoro-N-(6-(4-(4-fluorophenyl)-1-(piperidin-4-yl)-1H-imidazol-5-yl)imidazo[1,2-b]pyridazin-2-yl)isonicotinamide]
2.56 nM	0.38 nM	O=C(Nc1cn2nc(-c3c(-c4ccc(F)cc4)ncn3C3CCN(CCCF)CC3)ccc2n1)c1cc(F)nc(F)c1 [Compound 88, 2,6-difluoro-N-(6-(4-(4-fluorophenyl)-1-(1-(3-fluoropropyl)piperidin-4-yl)-1H-imidazol-5-yl)imidazo[1,2-b]pyridazin-2-yl)isonicotinamide]
1.09 nM	0.146 nM	NC(=O)CN1CCC(n2cnc(-c3ccc(F)cc3)c2-c2ccc3nc(NC(=O)c4cc(F)nc(F)c4)cn3n2)CC1 [Compound 89, N-(6-(1-(1-(2-amino-2-oxoethyl)piperidin-4-yl)-4-(4-fluorophenyl)-1H-imidazol-5-yl)imidazo[1,2-b]pyridazin-2-yl)-2,6-difluoroisonicotinamide]
5.68 nM	0.65 nM	O=C(Nc1cn2nc(-c3c(-c4ccc(F)cc4)ncn3C3CCN(C[C@@H](O)C(F)(F)F)CC3)ccc2n1)c1cc(F)nc(F)c1 [Compound 90, (R)-2,6-difluoro-N-(6-(4-(4-fluorophenyl)-1-(1-(3,3,3-trifluoro-2-hydroxypropyl)piperidin-4-yl)-1H-imidazol-5-yl)imidazo[1,2-b]pyridazin-2-yl)isonicotinamide]
0.796 nM	0.296 nM	O=C(Nc1cn2nc(-c3c(-c4ccc(F)cc4)ncn3C3CCN(C[C@H](O)C(F)(F)F)CC3)ccc2n1)c1cc(F)nc(F)c1 [Compound 91, (S)-2,6-difluoro-N-(6-(4-(4-fluorophenyl)-1-(1-(3,3,3-trifluoro-2-hydroxypropyl)piperidin-4-yl)-1H-imidazol-5-yl)imidazo[1,2-b]pyridazin-2-yl)isonicotinamide]
7.88 nM	1.45 nM	O=C(Nc1cn2nc(-c3c(-c4ccc(F)cc4)ncn3C3CCN(CCC(F)(F)F)CC3)ccc2n1)c1cc(F)nc(F)c1 [Compound 92, 2,6-difluoro-N-(6-(4-(4-fluorophenyl)-1-(1-(3,3,3-trifluoropropyl)piperidin-4-yl)-1H-imidazol-5-yl)imidazo[1,2-b]pyridazin-2-yl)isonicotinamide]
2.47 nM	0.393 nM	O=C(Nc1cn2nc(-c3c(-c4ccc(F)cc4)ncn3C3CCN(C(=O)c4ccon4)CC3)ccc2n1)c1cc(F)nc(F)c1 [Compound 93, 2,6-difluoro-N-(6-(4-(4-fluorophenyl)-1-(1-(isoxazole-3-carbonyl)piperidin-4-yl)-1H-imidazol-5-yl)imidazo[1,2-b]pyridazin-2-yl)isonicotinamide]
1.26 nM	0.329 nM	Cc1nc(-c2cccnc2)sc1C(=O)Nc1cn2nc(-c3c(-c4ccc(F)cc4)ncn3C3CCN(C[C@H](O)C(F)(F)F)CC3)ccc2n1 [Compound 99, (S)—N-(6-(4-(4-fluorophenyl)-1-(1-(3,3,3-trifluoro-2-hydroxypropyl)piperidin-4-yl)-1H-imidazol-5-yl)imidazo[1,2-b]pyridazin-2-yl)-4-methyl-2-(pyridin-3-yl)thiazole-5-carboxamide]
3.88 nM	0.159 nM	O=C(Nc1cn2nc(-c3c(-c4ccc(F)cc4)ncn3C3CCN(CCC(F)(F)F)CC3)ccc2n1)c1cncs1 [Compound 115, N-(6-(4-(4-fluorophenyl)-1-(1-(3,3,3-trifluoropropyl)piperidin-4-yl)-1H-imidazol-5-yl)imidazo[1,2-b]pyridazin-2-yl)thiazole-5-carboxamide]
